The record followed here is ChEMBL document CHEMBL5725928, “Substituted 4,5,6,7-tetrahydropyrazolo[1,5-A]pyrazine derivatives as casein kinase 1 D/E inhibitors” (2017).

The target of this assay is Casein kinase I isoform epsilon (Homo sapiens, UniProt P49674). As to the kind of experiment: Kinase Assay: The kinase assay was performed in V-bottom 384-well plates. The final assay volume was 30 μl prepared from 15 μl additions of enzyme, substrates (fluoresceinated peptide FL-AHA-KRRRAL-PSER-VASLPGL-OH and ATP) and test compounds in assay buffer (20 mM HEPES pH 7.4, 30 mM MgCl2, 0.015% Brij35 and 4 mM DTT). The reaction was incubated at room temperature for 22 hours and terminated by adding 45 μl of 35 mM EDTA to each sample. The reaction mixture was analyzed on the Caliper LABCHIP®3000 (Caliper, Hopkinton, Mass.) by electrophoretic separation of the unphosphorylated substrate and phosphorylated product. […] The final concentration of reagents in the assay were 200 pM CK1ε or CK1δ, 50 μM ATP, 1.5 μM FL-AHA-KRRRAL-PSER-VASLPGL-OH, and 1.6% DMSO. Dose response curves were generated to determine the concentration required to inhibit 50% of the kinase activity (IC50). Compounds were dissolved at 10 mM in dimethylsulfoxide (DMSO) and evaluated at eleven concentrations. IC50 values were derived by non-linear regression analysis.
Casein kinase I isoform epsilon, sequence (P49674 whole entry, canonical isoform): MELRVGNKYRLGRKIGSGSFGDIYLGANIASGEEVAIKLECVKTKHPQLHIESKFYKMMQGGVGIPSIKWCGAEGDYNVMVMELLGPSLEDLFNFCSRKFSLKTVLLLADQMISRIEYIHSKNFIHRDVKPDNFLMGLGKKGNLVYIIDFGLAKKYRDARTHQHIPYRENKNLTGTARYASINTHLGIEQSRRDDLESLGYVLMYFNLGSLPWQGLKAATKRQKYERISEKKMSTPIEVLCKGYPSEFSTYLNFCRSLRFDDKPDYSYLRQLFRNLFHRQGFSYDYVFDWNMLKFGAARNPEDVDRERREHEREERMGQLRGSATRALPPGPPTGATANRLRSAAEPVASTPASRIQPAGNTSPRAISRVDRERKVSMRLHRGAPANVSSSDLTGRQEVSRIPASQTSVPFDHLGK

As a reminder, the IC50 is the concentration needed to halve the response being measured. Take `COc1cccc(-c2nn3c(c2C(N)=O)CN(C(=O)Nc2ccc(C#N)cc2)CC3)c1`: the IC50 is less than 10 nM.

`N#Cc1ccc(NC(=O)N2CCn3nc(-c4cnc(F)c(Cl)c4)c(C(N)=O)c3C2)cc1C(F)(F)F`: the IC50 was less than 10 nM.

For `NC(=O)c1c(-c2cccc(F)c2)nn2c1CN(C(=O)Nc1cc(Cl)cc(Cl)c1)CC2`, the IC50 was less than 10 nM.

On to `Cc1ncc(-c2ccc(NC(=O)N3CCn4nc(-c5cccc(F)c5)c(C(N)=O)c4C3)cc2)o1`, for which the IC50 was less than 10 nM.

As for `N#Cc1ccc(NC(=O)N2CCn3nc(-c4cccc(Cl)c4)c(C(N)=O)c3C2)cc1N1CCOCC1`, the half-inhibitory concentration (IC50) was less than 10 nM.

Turning to `Cc1nc(-c2ccc(NC(=O)N3CCn4nc(-c5ccc(F)c(Cl)c5)c(C(N)=O)c4C3)cc2)cs1`, the IC50 was less than 10 nM.

`NC(=O)c1c(-c2ccc(Cl)c(F)c2)nn2c1CN(C(=O)Nc1ccc(Cl)c(Cl)c1)CC2`: the concentration for half-maximal inhibition (IC50) is less than 10 nM.

For `NC(=O)c1c(-c2ccc(F)c(Cl)c2)nn2c1CN(C(=O)Nc1cc(F)cc(C(F)(F)F)c1)CC2`, the IC50 is less than 10 nM.

Turning to `NC(=O)c1c(-c2ccc(F)c(Cl)c2)nn2c1CN(C(=O)Nc1ccc3c(c1)S(=O)(=O)C=C3)CC2`, the IC50 was less than 10 nM.

Consider `NC(=O)c1c(-c2cccc(F)c2)nn2c1CN(C(=O)NC1C3CC4CC(C3)CC1C4)CC2` (stereo not drawn), for which the concentration for half-maximal inhibition (IC50) was less than 10 nM.

As to `NC(=O)c1c(-c2ccc(F)c(Cl)c2)nn2c1CN(C(=O)Nc1ccc(F)cc1)CC2`, the IC50 is less than 10 nM.

Regarding `Cc1nc(-c2ccc(NC(=O)N3CCn4nc(-c5cccc(F)c5)c(C(N)=O)c4C3)cc2)cs1`, the IC50 is less than 10 nM.

On to `NC(=O)c1c(-c2cc(F)cc(Cl)c2)nn2c1CN(C(=O)Nc1cc(F)cc(C(F)(F)F)c1)CC2`, for which the IC50 was less than 10 nM.
